{"source": "paper PMC9138599", "about": "“Clade-Specific Alterations within the HIV-1 Capsid Protein with Implications for Nuclear Translocation” (Biomolecules, 2022)", "key": {"[1]": {"biological_target": "HIV-1 CA hexamer from clade C (92BR025.8) (Human immunodeficiency virus type 1 group M subtype C, UniProt O12157, E175C/M315A/P144C/W314A)", "sequence (O12157 131-361 P144C/E175C/W314A/M315A)": "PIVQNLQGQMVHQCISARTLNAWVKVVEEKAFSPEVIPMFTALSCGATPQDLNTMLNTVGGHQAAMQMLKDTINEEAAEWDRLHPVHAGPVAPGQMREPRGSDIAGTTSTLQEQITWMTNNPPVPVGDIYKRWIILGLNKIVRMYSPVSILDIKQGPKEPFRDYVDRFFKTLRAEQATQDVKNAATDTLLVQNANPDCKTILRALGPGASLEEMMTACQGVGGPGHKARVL", "experiment": "SPR binding to immobilized HIV-1 CA hexamer, clade C"}, "[2]": {"biological_target": "tri-hexameric interface of CA hexamers", "design": "method as in PMID 34835048", "conditions": "RRR patch binding into tri-hexameric interface; cited from earlier work"}, "[3]": {"system": "HIV-1 CA hexamer from clade A1 (92UG037.1)", "format": "binding", "conditions": "SPR"}, "[4]": {"system": "HIV-1 CA hexamer from clade A2 (CDKTB48)", "format": "binding", "conditions": "SPR"}, "[5]": {"biological_target": "HIV-1 CA hexamer from clade B (NL4-3) (Human immunodeficiency virus type 1 group M subtype B, UniProt P12493, A146C/E177C/M317A/W316A)", "experiment": "SPR binding to immobilized HIV-1 CA hexamer, clade B"}, "[6]": {"system": "HIV-1 CA hexamer from clade D (94UG114.1)", "format": "binding", "conditions": "SPR"}, "[7]": {"system": "monomeric HIV-1 CA protein, clade A1 (92UG037.1)", "experiment": "In vitro CA assembly (turbidity) assay, clade A1", "format": "biochemical", "conditions": "3 M NaCl", "protocol": "(§1) In vitro assembly of the monomeric HIV-1 CA proteins was performed using a modification of the standard CA turbidity assembly assay [62, 63, 64, 65, 66]. This assay relies upon the fact that the addition of high salt to HIV-1 CA protein causes self-assembly that can be monitored and quantified as the increase in turbidity over time, as described in Kortagere et al. [61, 67]. Briefly, 75 µL of buffer was prepared, containing a final concentration of 50 mM NaH2PO4 pH 8.0 and various concentrations (1–5 M) of NaCl to assess the optimal concentration of salt needed to initiate assembly after the addition of the purified clade variants. To initiate the assembly reaction, 25 µL of 120 µM purified capsid was added to a final CA concentration of 30 µM (including matching DMSO concentrations). In the presence of compounds, the in vitro reaction contained 50 mM NaH2PO4 pH 8.0, 30 µM CA protein, 50 µM inhibitor, 3% DMSO, and 3 M NaCl. Readings were then taken at 350 nm every 30 s for 20 min to measure the increase in turbidity over time. The OD at 350 nm over the first 2 min was then plotted and fit with a linear regression to calculate the initial velocity (AU/min) of CA assembly."}, "[8]": {"system": "monomeric HIV-1 CA protein, clade A2 (CDKTB48)", "experiment": "In vitro CA assembly (turbidity) assay, clade A2", "format": "biochemical", "conditions": "3 M NaCl", "protocol": "as §1"}, "[9]": {"biological_target": "T1, monomeric HIV-1 CA protein, clade C (92BR025.8) (Human immunodeficiency virus type 1 group M subtype C, UniProt O12157)", "T1 construct": "hexahistidine (C); made in house; host or cells: E. coli BL21 (DE3) RIL", "T1 sequence (O12157 131-361)": "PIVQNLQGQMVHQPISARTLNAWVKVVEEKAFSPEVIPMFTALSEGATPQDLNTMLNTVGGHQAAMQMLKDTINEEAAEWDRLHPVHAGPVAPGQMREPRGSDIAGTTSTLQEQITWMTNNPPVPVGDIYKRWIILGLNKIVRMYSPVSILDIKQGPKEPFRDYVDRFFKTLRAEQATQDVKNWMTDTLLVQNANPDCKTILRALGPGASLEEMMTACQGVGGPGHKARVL", "experiment": "In vitro CA assembly (turbidity) assay, clade C", "format": "biochemical", "conditions": "clade C CA 30 µM, 50 µM inhibitor, 3 M NaCl, first 120 s, n = 3", "protocol": "as §1"}, "[10]": {"system": "monomeric HIV-1 CA protein, clade D (94UG114.1)", "experiment": "In vitro CA assembly (turbidity) assay, clade D", "format": "biochemical", "conditions": "clade D CA 30 µM, 50 µM inhibitor, 3 M NaCl, first 120 s, n = 3", "protocol": "as §1"}, "[11]": {"biological_target": "monomeric HIV-1 CA protein, clade B (NL4-3) (Human immunodeficiency virus type 1 group M subtype B, UniProt P12493)", "protocol": "as §1"}, "[12]": {"conditions": "global fit, n = 3, read-out: KD Kinetic/Global"}, "[13]": {"conditions": "Langmuir isotherm equilibrium fit, 25 °C, n = 3, read-out: KD Equilibrium"}, "[14]": {"conditions": "SPR, clade B (NL4.3) hexamer, 1:1 binding model, n = 3"}}, "note": "Where two headings read alike, the source gives them in different places.", "data": [{"compound": "CC(C)[C@H](NC(=O)CNC(=O)[C@H](CO)NC(=O)[C@@H]1CCCN1C(=O)[C@H](CO)NC(=O)[C@H](CC(N)=O)NC(=O)[C@H](CC(N)=O)NC(=O)[C@@H](N)[C@@H](C)O)C(=O)N[C@@H](Cc1ccccc1)C(=O)N[C@H](C(=O)N[C@@H](Cc1ccccc1)C(=O)NCC(=O)N[C@@H](C)C(=O)N[C@@H](CC(N)=O)C(=O)N[C@@H](CO)C(=O)N[C@@H](CO)C(=O)N[C@H](C(=O)O)[C@@H](C)O)[C@@H](C)O", "note": "[NUP-153]", "values": [{"measurement": "Kd", "setting": "[1]; Langmuir isotherm equilibrium fit, n = 3, read-out: KD Equilibrium", "result": 503000, "unit": "nM"}, {"measurement": "Kd", "setting": "[1]; [12]", "result": 881000, "unit": "nM"}]}, {"compound": "RRR patch: highly positively charged RRR motif at the C-terminus of NUP-153 binding the tri-hexameric interface of CA (FSGRKIKTAVRRRK; UniProt P49790 1462-1475, looked up, fragment)", "values": [{"measurement": "Kd", "setting": "[2]", "result": 800, "unit": "nM"}]}, {"compound": "PF-74", "values": [{"measurement": "koff", "setting": "[3]; 1:1 binding model, n = 3", "result": 0.647, "unit": "s⁻¹"}, {"measurement": "kon", "setting": "[3]; 1:1 binding model, n = 3", "result": 615000, "unit": "M⁻¹ s⁻¹"}, {"measurement": "Kd", "setting": "[3]; [13]", "result": 716, "unit": "nM"}, {"measurement": "Kd", "setting": "[3]; [12]", "result": 946, "unit": "nM"}, {"measurement": "koff", "setting": "[4]; 1:1 binding model, n = 3", "result": 0.0916, "unit": "s⁻¹"}, {"measurement": "kon", "setting": "[4]; 1:1 binding model, n = 3", "result": 669000, "unit": "M⁻¹ s⁻¹"}, {"measurement": "Kd", "setting": "[4]; [13]", "result": 138, "unit": "nM"}, {"measurement": "Kd", "setting": "[4]; [12]", "result": 139, "unit": "nM"}, {"measurement": "fold tighter binding to clade B protein compared to clade A1 protein", "setting": "[5]; SPR data, clade B vs clade A1", "result": "~ 20 fold"}, {"measurement": "koff", "setting": "[5]; [14]", "result": 0.0363, "unit": "s⁻¹"}, {"measurement": "kon", "setting": "[5]; [14]", "result": 756000, "unit": "M⁻¹ s⁻¹"}, {"measurement": "koff", "setting": "[1]; 1:1 binding model, n = 3", "result": 0.0754, "unit": "s⁻¹"}, {"measurement": "kon", "setting": "[1]; 1:1 binding model, n = 3", "result": 228000, "unit": "M⁻¹ s⁻¹"}, {"measurement": "Kd", "setting": "[1]; [13]", "result": 354, "unit": "nM"}, {"measurement": "Kd", "setting": "[1]; [12]", "result": 330, "unit": "nM"}, {"measurement": "koff", "setting": "[6]; 1:1 binding model, n = 3", "result": 0.0395, "unit": "s⁻¹"}, {"measurement": "kon", "setting": "[6]; 1:1 binding model, n = 3", "result": 773000, "unit": "M⁻¹ s⁻¹"}, {"measurement": "Kd", "setting": "[6]; [13]", "result": 51, "unit": "nM"}, {"measurement": "Kd", "setting": "[6]; [12]", "result": 51, "unit": "nM"}, {"measurement": "fold increase in assembly rate (initial velocity) vs Apo", "setting": "[7]; clade A1, 50 µM inhibitor, initial 120 s", "result": 1.5, "unit": "fold"}, {"measurement": "Initial Velocity PF-74", "setting": "[7]; clade A1 CA 30 µM, 50 µM inhibitor, first 120 s, n = 3", "result": "0.034 ± 0.001", "unit": "AU/min"}, {"measurement": "fold increase in assembly rate (initial velocity) vs Apo", "setting": "[8]; clade A2, 50 µM inhibitor, initial 120 s", "result": 1.3, "unit": "fold"}, {"measurement": "Initial Velocity PF-74", "setting": "[8]; clade A2 CA 30 µM, 50 µM inhibitor, first 120 s, n = 3", "result": "0.017 ± 0.002", "unit": "AU/min"}, {"measurement": "Initial Velocity PF-74", "setting": "[9]", "result": "0.039 ± 0.007", "unit": "AU/min"}, {"measurement": "Initial Velocity PF-74", "setting": "[10]", "result": "0.050 ± 0.008", "unit": "AU/min"}, {"measurement": "Initial Velocity PF-74", "setting": "[11]", "result": "0.043 ± 0.009", "unit": "AU/min"}]}]}
